ChEMBL document CHEMBL3044612, “Design, synthesis and biological evaluation of some novel 3-cinnamoyl-4-hydroxy-2H-chromen-2-ones as antimalarial agents” (Med Chem Res, 2012)
Values after ≈ are worked out from the molar mass of the structure shown.

What was measured:
[1] = Selectivity index, ratio of IC50 for human K562 cells to IC50 for chloroquine-sensitive Plasmodium falciparum 3D7; type: toxicity, cell-based; conditions: read-out: Ratio IC50
[2] = tested on: K562; assay: Cytotoxicity against Homo sapiens (human) K562 cells by Sulphorhodamine B assay; type: cell-based
[3] = Selectivity index, ratio of IC50 for human K562 cells to IC50 for chloroquine-resistant Plasmodium falciparum W2; type: toxicity, cell-based; conditions: read-out: Ratio IC50
[4] = tested on: Plasmodium falciparum; assay: Antimalarial activity against chloroquine-resistant Plasmodium falciparum W2 by in vitro cell culture method; type: functional, organism-based
[5] = Selectivity index, ratio of IC50 for human K562 cells to IC80 for chloroquine-sensitive Plasmodium falciparum 3D7; type: toxicity, cell-based; conditions: read-out: Selectivity Index
[6] = tested on: Plasmodium falciparum; assay: Antimalarial activity against chloroquine-sensitive Plasmodium falciparum 3D7 by in vitro cell culture method; type: functional, organism-based
[7] = tested on: Plasmodium falciparum; assay: Antimalarial activity against Plasmodium falciparum by [3H]-hypoxanthine incorporation assay; type: functional, organism-based

IC50 [7] [µM] | SMILES | selectivity ratio [1] | IC50 [2] [µg/mL] | selectivity ratio [3] | IC50 [4] [µg/mL] | selectivity ratio [5] | IC50 [6] [µg/mL] | IC80 [6] [µg/mL]
 | O=C(/C=C/c1cccc([N+](=O)[O-])c1)c1c(O)c2ccccc2oc1=O | 9.72 | 152 (≈ 450 µM) | 2.8 | 54.1 (≈ 160 µM) | 6.02 | 15.6 (≈ 46.3 µM) | 25.2 (≈ 74.7 µM)
 | CN(C)c1ccc(/C=C/C(=O)c2c(O)c3ccccc3oc2=O)cc1 | 9.1 | 156 (≈ 467 µM) | 2.29 | 68.2 (≈ 203 µM) | 7.08 | 17.2 (≈ 51.3 µM) | 22.1 (≈ 65.9 µM)
 | O=C(/C=C/c1ccccc1)c1c(O)c2ccccc2oc1=O | 4.49 | 99.2 (≈ 339 µM) | 9.02 | 11 (≈ 37.6 µM) | 1.76 | 22.1 (≈ 75.6 µM) | 56.3 (≈ 193 µM)
 | COc1ccc(/C=C/C(=O)c2c(O)c3ccccc3oc2=O)c(OC)c1OC | 5.48 | 46.6 (≈ 122 µM) | 0.83 | 56.1 (≈ 147 µM) | 2.3 | 8.5 (≈ 22.2 µM) | 20.3 (≈ 53.1 µM)
 | O=C(/C=C/c1ccc(Cl)cc1Cl)c1c(O)c2ccccc2oc1=O |  | 149 (≈ 413 µM) |  |  |  | > 50 | 
 | O=C(/C=C/c1ccccc1Cl)c1c(O)c2ccccc2oc1=O |  | 124 (≈ 378 µM) |  |  |  | > 50 | 
 | O=C(/C=C/c1cccc(Cl)c1)c1c(O)c2ccccc2oc1=O |  |  |  | 6.2 (≈ 19 µM) |  | 4.2 (≈ 12.9 µM) | 9 (≈ 27.5 µM)
 | COc1cc(/C=C/C(=O)c2c(O)c3ccccc3oc2=O)cc(OC)c1OC |  | 103 (≈ 270 µM) |  |  |  | > 50 | 
 | Cc1ccc(/C=C/C(=O)c2c(O)c3ccccc3oc2=O)cc1 |  |  |  | 5.1 (≈ 16.6 µM) |  | 6.1 (≈ 19.9 µM) | 15 (≈ 49 µM)
 | COc1ccc(/C=C/C(=O)c2c(O)c3ccccc3oc2=O)cc1 |  |  |  | 35.8 (≈ 111 µM) |  | 7.2 (≈ 22.3 µM) | 6.2 (≈ 19.2 µM)
25 | O=c1ccc2ccc(O)c(O)c2o1 [DAPHNETIN] |  |  |  |  |  |  | 
 | COc1ccc(/C=C/C(=O)c2c(O)c3ccccc3oc2=O)cc1OC | 11.5 | 71.4 (≈ 203 µM) | 3.25 | 22 (≈ 62.4 µM) | 4.73 | 6.2 (≈ 17.6 µM) | 15.1 (≈ 42.9 µM)
 | O=C(/C=C/c1ccc(Cl)cc1)c1c(O)c2ccccc2oc1=O | 6.29 | 32.1 (≈ 98.2 µM) | 4.94 | 6.5 (≈ 19.9 µM) | 2.26 | 5.1 (≈ 15.6 µM) | 14.2 (≈ 43.5 µM)
 | O=C(/C=C/c1ccc([N+](=O)[O-])cc1)c1c(O)c2ccccc2oc1=O | 49.7 | 154 (≈ 457 µM) | 38.5 | 4 (≈ 11.9 µM) | 22 | 3.1 (≈ 9.19 µM) | 7 (≈ 20.8 µM)
 | COc1cc(/C=C/C(=O)c2c(O)c3ccccc3oc2=O)ccc1O |  |  |  | 61.3 (≈ 181 µM) |  | 11.2 (≈ 33.1 µM) | 27.2 (≈ 80.4 µM)
 | O=C(/C=C/c1ccco1)c1c(O)c2ccccc2oc1=O |  |  |  |  |  | > 50 | 
 | CCN(CC)CCCC(C)Nc1ccnc2cc(Cl)ccc12 (stereo unspecified) [CHLOROQUINE] |  | 43.8 (≈ 137 µM) |  |  |  |  | 0.0401 (≈ 0.125 µM)
